Earlier results on one compound are cited in US20120046368A1, “METHOD FOR PURIFYING 3,4-DIHYDROXYPHENYLGLYCOL (DHPG) FROM PLANT PRODUCTS” (CONSEJO SUPERIOR DE INVESTIGACIONES CIENTIFICAS, priority 2008, published 2012).

The conditions of series [1]: compared with HT.
The conditions of series [2]: fold greater than ascorbic acid or HT.

Turning to `OCC(O)c1ccc(O)c(O)c1` (centres unmarked) [DHPG, 3,4-dihydroxyphenylglycol], in series [1], the “antioxidant efficacy in a lipid medium relative to HT” value is reported as “twice that of HT”. In addition, the “antioxidant efficacy in water relative to ascorbic acid or HT” value in series [2] is 2-3 times.
